Structures are written as SMILES.

The assay addresses T1, human NaV1.6 (hNaV1.6) (Homo sapiens, UniProt Q9UQD0).
T1 construct: expressed in transfected cells; host or cells: HEK-293 (G418 selection)
The assay is described as follows: Modulation of late (persistent) sodium current (INaL), PatchXpress electrophysiology, HEK-293 cells expressing hNaV1.6, ATX-II evoked. Format: cell-based. The note with it: 1 μM compound, HEK-293 cells expressing recombinant human NaV1.6, late current evoked by 300 nM ATX-II, steady-state inhibition; for inhibition at 1 µM: HEK293. The method, then:
Functional characterization of exemplary compounds to modulate INaL expressed by the NaV16 voltage-gated sodium channel was accomplished using the PatchXpress™ high throughput electrophysiology platform (Molecular Devices, Sunnyvale, Calif.). HEK-293 cells expressing recombinant, human NaV1.6 (hNaV1.6) were grown in DMEM/high-glucose Dulbecco's modified, 10% FBS, 2 mM sodium pyruvate, 10 mM HEPES and 400 μg/mL G418. Cells were grown to 50%-80% confluency prior to harvesting. Trypsinized cells were washed, allowed to recover for 1 hour and then resuspended in extracellular recording solution at a concentration of 1×10^6 cells/ml. The onboard liquid handling facility of the PatchXpress was used for dispensing cells and applying test compounds. NaV late currents were evoked by the application of 300 nM ATX-II. INaL was evoked by depolarizing pulses to 0 mV for 200 ms from a non-inactivating holding potential (e.g., −120 mV) at a frequency of 0.1 Hz. INaL amplitude and stability were determined by analyzing the mean current amplitude over the final 20 ms of the test pulse. Following steady state block with exemplary compounds (e.g., as described herein), a Na^+ free solution containing an impermeant cation (e.g., Choline or NDMG) was added to confirm the identify of the sodium current. Percent steady-state inhibition of INaL was calculated as: [(INaL_compound)/(INaL_control)]*100, where INaL_compound and INaL_control represent INaL recorded in the presence or absence of compound, respectively.
In this table, “A” indicates inhibition of less than 30%; “B” indicates inhibition of between about 30% to about 70%; and “C” indicates inhibition of greater than 70%.

T1 sequence (Q9UQD0 whole entry): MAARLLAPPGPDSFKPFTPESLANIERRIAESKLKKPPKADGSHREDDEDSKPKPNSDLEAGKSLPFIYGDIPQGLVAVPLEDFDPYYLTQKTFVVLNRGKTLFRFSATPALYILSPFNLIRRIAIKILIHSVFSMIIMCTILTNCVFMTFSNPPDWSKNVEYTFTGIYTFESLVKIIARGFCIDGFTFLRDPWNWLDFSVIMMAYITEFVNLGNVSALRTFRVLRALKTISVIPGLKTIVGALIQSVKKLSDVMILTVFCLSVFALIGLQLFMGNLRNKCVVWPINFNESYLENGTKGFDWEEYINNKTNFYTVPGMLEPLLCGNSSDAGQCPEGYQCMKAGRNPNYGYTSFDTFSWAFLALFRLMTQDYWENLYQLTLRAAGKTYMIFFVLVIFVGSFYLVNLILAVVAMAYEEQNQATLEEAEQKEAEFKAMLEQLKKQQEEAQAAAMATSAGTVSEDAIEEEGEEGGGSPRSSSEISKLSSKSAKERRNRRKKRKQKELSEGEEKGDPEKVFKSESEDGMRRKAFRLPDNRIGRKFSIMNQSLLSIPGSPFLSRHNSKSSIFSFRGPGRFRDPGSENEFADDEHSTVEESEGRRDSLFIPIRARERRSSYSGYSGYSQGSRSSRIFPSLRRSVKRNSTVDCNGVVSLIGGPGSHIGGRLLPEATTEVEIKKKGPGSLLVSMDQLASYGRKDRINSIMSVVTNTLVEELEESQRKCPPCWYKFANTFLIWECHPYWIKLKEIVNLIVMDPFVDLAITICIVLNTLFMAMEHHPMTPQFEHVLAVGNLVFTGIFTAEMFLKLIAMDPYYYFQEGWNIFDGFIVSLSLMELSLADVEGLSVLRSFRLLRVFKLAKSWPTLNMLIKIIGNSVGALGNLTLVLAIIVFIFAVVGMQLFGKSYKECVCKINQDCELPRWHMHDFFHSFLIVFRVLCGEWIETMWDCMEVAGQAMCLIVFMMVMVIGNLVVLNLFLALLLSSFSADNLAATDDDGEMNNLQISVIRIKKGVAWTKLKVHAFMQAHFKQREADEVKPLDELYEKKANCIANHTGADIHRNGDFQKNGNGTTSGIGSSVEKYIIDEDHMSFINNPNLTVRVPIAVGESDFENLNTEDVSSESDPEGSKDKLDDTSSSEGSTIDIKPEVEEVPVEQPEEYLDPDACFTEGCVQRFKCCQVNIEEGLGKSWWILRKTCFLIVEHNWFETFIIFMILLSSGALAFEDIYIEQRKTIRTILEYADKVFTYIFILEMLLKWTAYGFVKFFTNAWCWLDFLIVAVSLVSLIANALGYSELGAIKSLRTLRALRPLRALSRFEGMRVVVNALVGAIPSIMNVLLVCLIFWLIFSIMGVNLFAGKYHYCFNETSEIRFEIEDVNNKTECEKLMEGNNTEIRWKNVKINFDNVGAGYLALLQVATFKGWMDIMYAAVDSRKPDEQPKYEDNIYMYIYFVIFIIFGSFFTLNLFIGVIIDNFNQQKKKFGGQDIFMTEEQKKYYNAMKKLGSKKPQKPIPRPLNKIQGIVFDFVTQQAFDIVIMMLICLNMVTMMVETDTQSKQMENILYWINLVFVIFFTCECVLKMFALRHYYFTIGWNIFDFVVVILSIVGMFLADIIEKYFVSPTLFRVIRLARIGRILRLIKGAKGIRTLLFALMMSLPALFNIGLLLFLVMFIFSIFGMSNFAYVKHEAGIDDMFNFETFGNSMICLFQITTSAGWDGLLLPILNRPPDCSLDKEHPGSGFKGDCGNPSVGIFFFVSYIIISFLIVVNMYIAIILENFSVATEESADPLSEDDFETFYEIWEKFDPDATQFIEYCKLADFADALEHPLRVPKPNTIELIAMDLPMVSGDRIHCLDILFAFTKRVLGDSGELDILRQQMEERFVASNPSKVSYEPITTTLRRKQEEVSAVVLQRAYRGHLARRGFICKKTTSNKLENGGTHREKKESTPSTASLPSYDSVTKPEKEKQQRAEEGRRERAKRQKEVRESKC

What is called inhibition is the drop in the measured response relative to a control, in per cent. `FC(F)(F)Cn1nnc2ccc(-c3ccc(OC(F)(F)F)cc3)nc21` [Compound 1]: the inhibition at 1 µM lay in the range of 30 to 70%. On the same count and under the same terms, as for `FC(F)(F)Cn1nnc2ccc(-c3ccc(OC(F)(F)F)cc3)cc21` [Compound 2], the figure is over 70%. Same read-out and setting: as for `COCc1cc(OC(F)(F)F)ccc1-c1ccc2nnn(CC(F)(F)F)c2c1` [Compound 4], the figure is 30 to 70%; as for `N#CC1(c2ccc(-c3ccc4nnn(CC(F)(F)F)c4c3)cc2)CC1` [Compound 5], under 30%.

On to `CCn1nnc2ccc(-c3ccc(OC(F)(F)F)cc3)cc21` [Compound 6], for which the inhibition at 1 µM fell in the range of 30 to 70%. Same read-out and setting: to `FC(F)(F)Oc1ccc(-c2ccc3nn[nH]c3c2)cc1` [Compound 7] belongs under 30%. Consider `Cn1nnc2ccc(-c3ccc(OC(F)(F)F)cc3)cc21` [Compound 8], for which the “INaL hNaV1.6 (1 μM, % inhibition)” value is listed as “B (inhibition of between about 30% to about 70%)”. On to `Cc1nnc(CCn2nnc3ccc(-c4ccc(OC(F)(F)F)cc4)nc32)o1` [Compound 9], for which the inhibition at 1 µM lay in the range of 30 to 70%.

For `FC(F)(F)Cn1nnc2ccc(-c3ccc(OC4CC(F)(F)C4)nc3)cc21` [Compound 10], the “INaL hNaV1.6 (1 μM, % inhibition)” value is “A (inhibition of less than 30%)”.

Turning to `COc1cc(OC(F)(F)F)ccc1-c1ccc2nnn(CC(F)(F)F)c2c1` [Compound 11], the “INaL hNaV1.6 (1 μM, % inhibition)” value is given as “A (inhibition of less than 30%)”. Still for that read-out and setting: to `FC(F)(F)COc1ccc(-c2ccc3nnn(CC(F)(F)F)c3c2)cn1` [Compound 12] belongs “B (inhibition of between about 30% to about 70%)”.

As to `FC(F)Cn1nnc2ccc(-c3ccc(OC(F)(F)F)cc3)cc21` [Compound 13], the inhibition at 1 µM was under 30%. On to `FC(F)(F)Cn1nnc2ccc(-c3ccc(OC4CC(F)(F)C4)cc3)cc21` [Compound 14], for which the “INaL hNaV1.6 (1 μM, % inhibition)” value was “B (inhibition of between about 30% to about 70%)”. Regarding `Cc1nnc(CCn2nnc3ccc(-c4ccc(OC(F)(F)F)cc4)cc32)o1` [Compound 15], the “INaL hNaV1.6 (1 μM, % inhibition)” value is “B (inhibition of between about 30% to about 70%)”. In the case of `COCCn1nnc2ccc(-c3ccc(OC(F)(F)F)cc3)cc21` [Compound 16], the inhibition at 1 µM fell in the range of 30 to 70%. Turning to `COc1cc(OC(F)(F)F)ccc1-c1ccc2nnn(CC(F)(F)F)c2n1` [Compound 17], the “INaL hNaV1.6 (1 μM, % inhibition)” value is “C (inhibition of greater than 70%)”. Same read-out and setting: to `COCc1cc(OC(F)(F)F)ccc1-c1ccc2nnn(CC(F)(F)F)c2n1` [Compound 18] belongs “C (inhibition of greater than 70%)”. For the molecule `FC(F)(F)Cn1nnc2cnc(-c3ccc(OC(F)(F)F)cc3)nc21` [Compound 19], the inhibition at 1 µM is under 30%. Regarding `FC(F)(F)Cn1nnc2cnc(-c3ccc(OC(F)(F)F)cc3)cc21` [Compound 20], the “INaL hNaV1.6 (1 μM, % inhibition)” value is given as “A (inhibition of less than 30%)”. Turning to `FC(F)(F)Cn1nnc2ncc(-c3ccc(OC(F)(F)F)cc3)cc21` [Compound 21], the inhibition at 1 µM was under 30%.
